Experimental data as given in publication PMC8377144, “Retro-enantio isomer of angiopep-2 assists nanoprobes across the blood-brain barrier for targeted magnetic resonance/fluorescence imaging of glioblastoma” (Signal Transduction and Targeted Therapy, 2021).

System: in vitro BBB model (bEnd.3 cells cocultured with U87-MG cells)
Test: NaFl permeability test of the in vitro BBB model (Transwell)
Assay type: in vitro ADME, mouse
Details: bEnd.3 upper / U87-MG lower chamber, 3 µm polycarbonate, 0.33 cm^2, 200 µL NaFl 10 µg/mL upper, 900 µL PBS lower, 37 °C, sampling 30, 60, 90 min, microplate reader 485/535 nm
Method: Construction of the in vitro BBB model: U87-MG cells and bEnd.3 cells were initially cultured in high-glucose DMEM containing 10% FBS and 1% penicillin/streptomycin at 37 °C with 5% CO2. Moreover, a layer of a collagen solution was smeared on the inner side of the polycarbonate Transwell (3 µm mean pore size, 0.33 cm^2 surface area, Millipore, USA) and dried naturally on a clean bench for 30 min. Then, bEnd.3 cells were inoculated into the upper chamber of 24-well transwells units at a density of 5 × 10^4 cells per well. Two days later, U87-MG cells were inoculated into the lower chamber at a density of 1 × 10^5 cells per well and cocultured with bEnd.3 cells for one week.
Another test taken as an example from a previous study using sodium fluorescein (NaFl) was also introduced to evaluate in vitro BBB permeability.[44] […] The absorbance of standard solutions was obtained by a multidetection monochrometer microplate reader, and subsequently, a NaFl concentration-absorbance curve was made. With the help of the curve, we measured the in vitro BBB permeability with NaFl. […] Then, a multidetection monochrometer microplate reader (485/535 nm) was used to measure the amount of NaFl in the […]. The apparent permeability coefficient (Papp) was calculated as follows: […]

O=C([O-])c1ccccc1-c1c2ccc(=O)cc-2oc2cc([O-])ccc12.[Na+].[Na+] [NaFl, sodium fluorescein]
Papp of NaFl, BBB model group: 11.24 ± 0.73 × 10^−6 cm/s
